Results on 1 molecule are retold here after article PMC12422582, “A divergent cyclic nucleotide binding protein promotes Plasmodium ookinete infection of the mosquito” (PLOS Pathogens, 2025).

For assay [1], the target named is T1, CNB3 of PbCBP-O (PbCNB3) (Plasmodium berghei, UniProt A0A509AL17).
T1 construct: gene PBANKA_1025300; N-terminal 6xHis, pET28a, E. coli Rosetta DE3, soluble lysate
Nature of the assay: cGMP-agarose pull-down, anti-His western blot. The class given is binding. As to conditions: ligand immobilised through position […] as 8-AET-cGMP-Agarose (BioLog); E. coli lysate, Hepes pH […]°C, […] h. For orientation: A western blot detects proteins with antibodies after separation by electrophoresis.

Assay [2] addresses T2, CBP-O(ΔN-term), GFP-tagged (Plasmodium berghei, UniProt A0A509AL17).
T2 construct: gene PBANKA_1025300; endogenous locus edited: residues 1-1694 deleted, CNB1-4/X kept, GFP tag; P. berghei schizont lysate
Put plainly: cGMP-agarose pull-down from schizont lysate, anti-GFP western blot. In kind it is biochemical. The following applies: ligand immobilised as 8-AET-cGMP-Agarose; Hepes pH […]°C, […] h.

With `Nc1nc2c(ncn2[C@@H]2O[C@@H]3COP(=O)(O)O[C@H]3[C@H]2O)c(=O)[nH]1` [cGMP], the “cGMP-agarose pull-down, anti-His western blot” value in assay [1] is “CNB3 showed affinity for both cAMP and cGMP (Fig 6C)”. Besides, the “cGMP-agarose pull-down from schizont lysate, anti-GFP western blot” value in assay [2] is “the N-term mutant retained cyclic nucleotide binding activity (Fig 6D)”.
